In ChEMBL document CHEMBL6134864, “Discovery of FLT3-ITD Inhibitor Clifutinib: A Novel Biphenylacetylene Urea Derivative in Clinical Trials for the Treatment of Relapsed/Refractory FLT3-ITD+ Acute Myeloid Leukemia” (J Med Chem, 2025):

Key:
BaF3 [1] = assay: cells; conditions: Mus musculus, BaF3, 72 h
BaF3 [2] = assay: Antiproliferative activity against mouse BaF3 cells harbouring FLT3-ITD assessed as inhibition of cell growth incubated for 72 hrs by celltiter-glo luminescent cell viability assay; format: functional, cell-based; conditions: BaF3, 72 h
[3] = Oral bioavailability in rat plasma at 5 mg/kg measured up to 24 hrs by LC-MS/MS analysis; format: ADME, organism-based
[4] = Tmax in NOD/SCID mouse plasma xenografted with human MV4-11 cells at 0.5 mg/kg, po measured up to 24 hrs by LC-MS/MS analysis; format: ADME, organism-based
NCI-H460 = assay: cells; conditions: Homo sapiens, NCI-H460, 72 h
Description: Antiproliferative activity against human NCI-H460 cells assessed as inhibition of cell growth incubated for 72 hrs by celltiter-glo luminescent cell viability assay

BaF3 [5] = assay: Antiproliferative activity against mouse BaF3 cells harbouring FLT3-D835V mutant assessed as inhibition of cell growth incubated for 72 hrs by celltiter-glo luminescent cell viability assay; format: functional, cell-based; conditions: BaF3, 72 h
[6] = Toxicity in NOD/SCID mouse assessed as effect on body weight loss at 0.5 to 4.5 mg/kg/day, po administered for 21 days and measured for 31 days post dose; format: organism-based; conditions: in vivo, 504 h, dose 0.5-4.5 mg/kg/day, time 21 day
[7] = Clearance in rat plasma at 5 mg/kg, po measured up to 24 hrs by LC-MS/MS analysis; format: ADME, organism-based
[8] = Cmax in NOD/SCID mouse tumor xenografted with human MV4-11 cells at 4.5 mg/kg, po measured up to 24 hrs by LC-MS/MS analysis; format: ADME, organism-based, Neoplasm
CAKI-1 = assay: cells; conditions: Homo sapiens, CAKI-1, 72 h
Description: Antiproliferative activity against human CAKI-1 cells assessed as inhibition of cell growth incubated for 72 hrs by celltiter-glo luminescent cell viability assay

[9] = AUC (0 to t) in NOD/SCID mouse tumor xenografted with human MV4-11 cells at […], po measured up to 24 hrs by LC-MS/MS analysis; format: ADME, organism-based, Neoplasm; conditions: dose 1.5 mg/kg
BaF3 [10] = assay: Antiproliferative activity against mouse BaF3 cells harbouring FLT3-ITD-N676D mutant assessed as inhibition of cell growth incubated for 72 hrs by celltiter-glo luminescent cell viability assay; format: functional, cell-based; conditions: BaF3, 72 h
SW-620 = assay: cells; conditions: Homo sapiens, SW-620, 72 h
Description: Antiproliferative activity against human SW620 cells assessed as inhibition of cell growth incubated for 72 hrs by celltiter-glo luminescent cell viability assay

Cytochrome P450 2B6 = Cytochrome P450 2B6 (Homo sapiens, UniProt P20813); assay: Inhibition of CYP2B6 in human liver microsomes by UPLC-MS/MS analysis; format: ADME, Microsome
Chain of Cytochrome P450 2B6 (P20813 whole entry): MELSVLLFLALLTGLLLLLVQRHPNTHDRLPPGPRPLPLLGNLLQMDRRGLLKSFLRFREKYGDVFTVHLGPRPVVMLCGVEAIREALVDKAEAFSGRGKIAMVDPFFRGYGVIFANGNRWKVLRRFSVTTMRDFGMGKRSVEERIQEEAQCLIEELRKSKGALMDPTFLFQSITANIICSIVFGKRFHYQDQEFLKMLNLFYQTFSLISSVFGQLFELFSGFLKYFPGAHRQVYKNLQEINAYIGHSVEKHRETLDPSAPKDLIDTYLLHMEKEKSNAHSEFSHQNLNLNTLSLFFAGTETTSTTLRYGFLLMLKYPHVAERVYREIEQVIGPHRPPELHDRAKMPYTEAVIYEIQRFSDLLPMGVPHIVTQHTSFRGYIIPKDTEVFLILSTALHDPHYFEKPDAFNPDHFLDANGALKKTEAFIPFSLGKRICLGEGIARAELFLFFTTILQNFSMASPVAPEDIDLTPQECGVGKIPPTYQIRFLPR

[11] = Toxicity in NOD/SCID mouse assessed as observable signs of toxicity at 0.5 to 4.5 mg/kg/day, po administered for 21 days and measured for 31 days post dose; format: organism-based; conditions: in vivo, 504 h, dose 0.5-4.5 mg/kg/day, time 21 day
[12] = tested on: Receptor-type tyrosine-protein kinase FLT3 (Homo sapiens), P36888 [UNDEFINED MUTATION]; assay: Inhibition of FLT3 in human MV4-11 cells harbouring FLT3-ITD mutant assessed as inhibition of ERK phosphorylation level measured after 2 hrs by Western blot analysis; format: cell-based; conditions: dose 1-1000 nM
Chain of Receptor-type tyrosine-protein kinase FLT3 (Homo sapiens), P36888 [UNDEFINED MUTATION] (P36888 whole entry, looked up, stated change not applied): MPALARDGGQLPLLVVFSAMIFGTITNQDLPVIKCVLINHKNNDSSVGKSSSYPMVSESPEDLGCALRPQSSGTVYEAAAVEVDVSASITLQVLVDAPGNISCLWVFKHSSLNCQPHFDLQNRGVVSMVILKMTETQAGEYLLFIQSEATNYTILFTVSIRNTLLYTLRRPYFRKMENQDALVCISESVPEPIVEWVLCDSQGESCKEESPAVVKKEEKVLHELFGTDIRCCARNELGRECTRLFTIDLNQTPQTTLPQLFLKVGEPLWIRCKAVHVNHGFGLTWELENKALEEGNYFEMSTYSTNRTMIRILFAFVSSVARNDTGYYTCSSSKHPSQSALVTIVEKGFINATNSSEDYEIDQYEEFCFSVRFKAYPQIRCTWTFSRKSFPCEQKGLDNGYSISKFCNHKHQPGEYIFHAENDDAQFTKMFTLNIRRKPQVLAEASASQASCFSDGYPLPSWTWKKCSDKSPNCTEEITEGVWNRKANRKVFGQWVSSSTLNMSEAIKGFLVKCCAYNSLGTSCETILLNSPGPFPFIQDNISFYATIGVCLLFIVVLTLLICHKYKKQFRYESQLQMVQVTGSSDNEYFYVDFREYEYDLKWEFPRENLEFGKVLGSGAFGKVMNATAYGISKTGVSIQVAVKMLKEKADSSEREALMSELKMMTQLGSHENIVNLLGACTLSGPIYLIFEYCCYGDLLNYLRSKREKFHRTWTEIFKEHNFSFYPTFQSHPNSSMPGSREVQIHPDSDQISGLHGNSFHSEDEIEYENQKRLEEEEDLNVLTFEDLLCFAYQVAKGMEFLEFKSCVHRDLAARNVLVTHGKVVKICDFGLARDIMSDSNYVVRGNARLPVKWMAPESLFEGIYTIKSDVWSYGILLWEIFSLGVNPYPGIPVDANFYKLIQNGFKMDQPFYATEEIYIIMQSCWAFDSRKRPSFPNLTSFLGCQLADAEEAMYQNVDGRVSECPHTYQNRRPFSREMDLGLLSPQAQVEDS

[13] = molecular target: Proto-oncogene tyrosine-protein kinase receptor Ret (Homo sapiens, UniProt P07949, G691S); assay: Inhibition of human RET G691S mutant by biochemical kinase binding assay
Chain of Proto-oncogene tyrosine-protein kinase receptor Ret (P07949 29-1114 G691S limits assumed): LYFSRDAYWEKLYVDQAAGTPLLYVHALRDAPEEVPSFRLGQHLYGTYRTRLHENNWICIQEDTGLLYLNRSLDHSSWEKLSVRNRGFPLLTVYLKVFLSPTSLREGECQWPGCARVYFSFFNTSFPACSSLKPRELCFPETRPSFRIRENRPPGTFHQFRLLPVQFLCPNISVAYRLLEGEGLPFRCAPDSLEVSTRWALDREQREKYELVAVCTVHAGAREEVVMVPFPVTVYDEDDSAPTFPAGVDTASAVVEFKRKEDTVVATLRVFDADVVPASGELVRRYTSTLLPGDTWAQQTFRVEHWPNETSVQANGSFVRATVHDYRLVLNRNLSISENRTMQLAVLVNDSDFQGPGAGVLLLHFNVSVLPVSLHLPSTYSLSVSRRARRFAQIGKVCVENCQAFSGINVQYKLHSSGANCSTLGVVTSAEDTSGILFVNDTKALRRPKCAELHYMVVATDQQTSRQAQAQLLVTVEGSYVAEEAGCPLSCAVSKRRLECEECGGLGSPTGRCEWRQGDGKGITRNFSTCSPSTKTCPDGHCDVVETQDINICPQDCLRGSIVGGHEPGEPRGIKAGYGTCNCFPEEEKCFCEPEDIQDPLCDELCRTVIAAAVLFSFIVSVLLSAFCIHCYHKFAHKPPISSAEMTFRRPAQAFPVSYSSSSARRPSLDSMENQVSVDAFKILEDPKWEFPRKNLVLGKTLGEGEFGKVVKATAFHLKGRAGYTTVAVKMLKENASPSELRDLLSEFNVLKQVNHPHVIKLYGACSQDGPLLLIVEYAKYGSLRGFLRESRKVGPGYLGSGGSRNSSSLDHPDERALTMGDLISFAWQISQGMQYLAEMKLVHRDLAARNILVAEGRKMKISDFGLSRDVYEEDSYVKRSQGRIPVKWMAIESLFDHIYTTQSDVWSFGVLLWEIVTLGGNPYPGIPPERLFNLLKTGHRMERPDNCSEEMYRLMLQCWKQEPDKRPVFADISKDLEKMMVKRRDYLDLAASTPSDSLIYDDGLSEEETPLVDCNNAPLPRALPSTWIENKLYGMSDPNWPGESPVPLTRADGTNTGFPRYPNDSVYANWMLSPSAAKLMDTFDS

MOLM-13 = assay: Antitumor activity against human MOLM-13 cells xenografted in NOD/SCID mouse model assessed as tumor growth inhibition at […], po by caliper analysis relative to control; format: functional; conditions: dose 1.5 mg/kg/day, read-out: TGI
BaF3 [14] = assay: Antiproliferative activity against mouse BaF3 cells harbouring FLT3-ITD-F691I mutant assessed as inhibition of cell growth incubated for 72 hrs by celltiter-glo luminescent cell viability assay; format: functional, cell-based; conditions: BaF3, 72 h
786-0 = assay: cells; conditions: Homo sapiens, 786-0, 72 h
Description: Antiproliferative activity against human 786-0 cells assessed as inhibition of cell growth incubated for 72 hrs by celltiter-glo luminescent cell viability assay

[15] = Clearance in mouse plasma at 2 mg/kg, iv measured up to 24 hrs by LC-MS/MS analysis; format: ADME, organism-based
Cytochrome P450 2D6 = Cytochrome P450 2D6 (Homo sapiens, UniProt P10635); assay: Inhibition of CYP2D6 in human liver microsomes by UPLC-MS/MS analysis; format: ADME, Microsome
Chain of Cytochrome P450 2D6 (P10635 whole entry): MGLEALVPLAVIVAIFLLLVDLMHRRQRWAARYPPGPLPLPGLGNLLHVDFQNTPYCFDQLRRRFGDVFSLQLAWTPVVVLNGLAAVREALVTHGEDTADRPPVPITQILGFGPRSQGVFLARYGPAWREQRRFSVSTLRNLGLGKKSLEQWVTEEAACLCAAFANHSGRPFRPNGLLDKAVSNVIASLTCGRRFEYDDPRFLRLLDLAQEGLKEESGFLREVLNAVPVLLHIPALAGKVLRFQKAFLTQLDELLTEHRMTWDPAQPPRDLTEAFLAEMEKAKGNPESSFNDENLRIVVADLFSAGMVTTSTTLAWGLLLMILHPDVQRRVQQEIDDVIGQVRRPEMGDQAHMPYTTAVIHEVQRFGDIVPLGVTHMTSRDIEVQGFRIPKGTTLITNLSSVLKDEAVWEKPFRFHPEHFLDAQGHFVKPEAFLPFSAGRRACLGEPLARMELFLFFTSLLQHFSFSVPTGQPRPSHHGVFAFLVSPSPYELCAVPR

PC-3 = assay: cells; conditions: Homo sapiens, PC-3, 72 h
Description: Antiproliferative activity against human PC-3 cells assessed as inhibition of cell growth incubated for 72 hrs by celltiter-glo luminescent cell viability assay

[16] = Oral bioavailability in dog plasma at 5 mg/kg measured up to 24 hrs by LC-MS/MS analysis; format: ADME, organism-based, Canis lupus familiaris
BaF3 [17] = assay: cells; conditions: Mus musculus, BaF3, 72 h; remark: listed apart in the source
[18] = Half life in NOD/SCID mouse plasma xenografted with human MV4-11 cells at 4.5 mg/kg, po measured up to 24 hrs by LC-MS/MS analysis; format: ADME, organism-based
[19] = tested on: Receptor-type tyrosine-protein kinase FLT3 (Homo sapiens), P36888 [UNDEFINED MUTATION]; assay: Inhibition of FLT3 in human MV4-11 cells harbouring FLT3-ITD mutant assessed as inhibition of AKT phosphorylation level measured after 2 hrs by Western blot analysis; format: cell-based; conditions: dose 1-1000 nM
[20] = Volume of distribution at steady state in dog plasma at 1 mg/kg, iv measured up to 24 hrs by LC-MS/MS analysis; format: ADME, organism-based, Canis lupus familiaris; conditions: read-out: Vdss
U-251 = assay: cells; conditions: Homo sapiens, U-251, 72 h
Description: Antiproliferative activity against human U-251 cells assessed as inhibition of cell growth incubated for 72 hrs by celltiter-glo luminescent cell viability assay

[21] = AUC (0 to t) in NOD/SCID mouse tumor xenografted with human MV4-11 cells at 0.5 mg/kg, po measured up to 24 hrs by LC-MS/MS analysis; format: ADME, organism-based, Neoplasm
[22] = Tmax in dog plasma at 1 mg/kg, iv measured up to 24 hrs by LC-MS/MS analysis; format: ADME, organism-based, Canis lupus familiaris
U-87 MG = assay: cells; conditions: Homo sapiens, 72 h
Description: Antiproliferative activity against human U-87 MG cells assessed as inhibition of cell growth incubated for 72 hrs by celltiter-glo luminescent cell viability assay

[23] = Volume of distribution at steady state in mouse plasma at 2 mg/kg, iv measured up to 24 hrs by LC-MS/MS analysis; format: ADME, organism-based; conditions: read-out: Vdss
[24] = AUC last in mouse plasma at 2 mg/kg, iv measured up to 24 hrs by LC-MS/MS analysis; format: ADME, organism-based
[25] = Cmax in mouse plasma at 2 mg/kg, iv measured up to 24 hrs by LC-MS/MS analysis; format: ADME, organism-based
[26] = Tmax in NOD/SCID mouse tumor xenografted with human MV4-11 cells at […], po measured up to 24 hrs by LC-MS/MS analysis; format: ADME, organism-based, Neoplasm; conditions: dose 1.5 mg/kg
K562 = assay: cells; conditions: Homo sapiens, K562, 72 h
Description: Antiproliferative activity against human K562 cells assessed as inhibition of cell growth incubated for 72 hrs by celltiter-glo luminescent cell viability assay

[27] = AUC (0 to t) in NOD/SCID mouse tumor xenografted with human MV4-11 cells at 4.5 mg/kg, po measured up to 24 hrs by LC-MS/MS analysis; format: ADME, organism-based, Neoplasm
BaF3 [28] = assay: cells; conditions: Mus musculus, BaF3, 72 h; remark: listed apart in the source
Description: Antiproliferative activity against mouse BaF3 cells harbouring FLT3-D83HY mutant assessed as inhibition of cell growth incubated for 72 hrs by celltiter-glo luminescent cell viability assay

HL-60 = assay: cells; conditions: Homo sapiens, HL-60, 72 h
Description: Antiproliferative activity against human HL-60 cells assessed as inhibition of cell growth incubated for 72 hrs by celltiter-glo luminescent cell viability assay

RPMI-8226 = assay: cells; conditions: Homo sapiens, RPMI-8226, 72 h
Description: Antiproliferative activity against human RPMI-8226 cells assessed as inhibition of cell growth incubated for 72 hrs by celltiter-glo luminescent cell viability assay

[29] = molecular target: Mast/stem cell growth factor receptor Kit (Homo sapiens, UniProt P10721, T670I/V559D); assay: Inhibition of human KIT V559D/T670I mutant by biochemical kinase binding assay
Chain of Mast/stem cell growth factor receptor Kit (P10721 26-976 V559D/T670I limits assumed): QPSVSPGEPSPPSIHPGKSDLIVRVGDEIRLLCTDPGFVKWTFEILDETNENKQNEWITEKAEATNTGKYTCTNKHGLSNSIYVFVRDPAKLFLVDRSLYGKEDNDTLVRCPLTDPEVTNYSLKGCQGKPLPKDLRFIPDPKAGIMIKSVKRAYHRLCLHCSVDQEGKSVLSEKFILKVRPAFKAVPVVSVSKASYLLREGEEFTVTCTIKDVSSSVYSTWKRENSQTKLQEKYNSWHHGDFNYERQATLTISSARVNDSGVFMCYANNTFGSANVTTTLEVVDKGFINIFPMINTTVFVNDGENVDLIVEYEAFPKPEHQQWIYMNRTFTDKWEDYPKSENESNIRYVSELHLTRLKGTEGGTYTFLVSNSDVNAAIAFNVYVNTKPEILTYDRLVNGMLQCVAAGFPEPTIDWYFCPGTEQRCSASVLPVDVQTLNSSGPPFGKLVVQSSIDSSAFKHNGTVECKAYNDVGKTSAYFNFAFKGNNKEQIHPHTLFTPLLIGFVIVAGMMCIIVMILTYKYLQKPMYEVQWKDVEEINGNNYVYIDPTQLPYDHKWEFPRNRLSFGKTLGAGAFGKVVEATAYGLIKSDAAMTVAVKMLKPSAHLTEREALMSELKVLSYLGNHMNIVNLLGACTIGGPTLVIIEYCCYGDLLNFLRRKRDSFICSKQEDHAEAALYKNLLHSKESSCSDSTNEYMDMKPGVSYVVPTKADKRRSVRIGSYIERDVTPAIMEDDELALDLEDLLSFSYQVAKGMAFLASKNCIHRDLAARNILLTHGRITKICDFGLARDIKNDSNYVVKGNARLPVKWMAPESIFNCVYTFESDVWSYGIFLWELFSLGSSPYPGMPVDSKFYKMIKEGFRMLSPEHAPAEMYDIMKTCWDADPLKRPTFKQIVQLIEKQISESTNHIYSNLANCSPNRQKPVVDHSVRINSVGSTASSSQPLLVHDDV

Structure (SMILES): CC(C)(C)c1cc(NC(=O)Nc2ccc(C#Cc3ccc(OCCCN4CCOCC4)cc3)cc2)no1
- IC50 (BaF3 [1]): 2.9 nM
- IC50 (BaF3 [2]): 0.9 nM
- bioavailability [3]: 67.9%
- Tmax [4]: 1 h
- IC50 (NCI-H460): 7800 nM
- IC50 (BaF3 [5]): 37.4 nM
- Activity [6]: Non-toxic
- CL/F [7]: 6.67 mL/min/kg
- Cmax [8]: 307 ng/mL
- IC50 (CAKI-1): > 10000 nM
- AUC(0-t) at 24 h [9]: 1470 ng·h/mL
- IC50 (BaF3 [10]): 6.9 nM
- IC50 (SW-620): > 10000 nM
- IC50 (Cytochrome P450 2B6): > 33300 nM
- Activity [11]: Non-toxic
- inhibition [12]: Dose-dependent-effect
- IC50 [13]: 439 nM
- inhibition in vivo at […] (MOLM-13): 52%
- IC50 (BaF3 [14]): 154 nM
- IC50 (786-0): 3400 nM
- clearance [15]: 18.9 mL/min/kg
- IC50 (Cytochrome P450 2D6): > 33300 nM
- IC50 (PC-3): 7000 nM
- bioavailability [16]: 71.9%
- IC50 (BaF3 [17]): 74.7 nM
- half-life [18]: 3.82 h
- inhibition [19]: Dose-dependent-effect
- Vd [20]: 5.08 L/kg
- IC50 (U-251): > 10000 nM
- AUC(0-t) at 24 h [21]: 380 ng·h/mL
- Tmax [22]: 4.98 min
- IC50 (U-87 MG): > 10000 nM
- Vd [23]: 1.36 L/kg
- AUC(0-t) at 24 h [24]: 1740 ng·h/mL
- Cmax [25]: 1820 ng/mL
- Tmax at 24 h [26]: 6 h
- IC50 (K562): > 10000 nM
- AUC(0-t) at 24 h [27]: 4700 ng·h/mL
- IC50 (BaF3 [28]): 10.9 nM
- IC50 (HL-60): > 10000 nM
- IC50 (RPMI-8226): > 10000 nM
- IC50 [29]: 283 nM
